Assay results from PubChem BioAssay AID2060624 (Molecular Pharmacology Branch, DTP, NCI, 2025).

System: 217524-143-R1-J4-PDC spheroids with HUVEC/MSC, viability
Assay: Anticancer human tumor 217524-143-R1-J4-PDC patient-derived pancreatic carcinoma cell line growth inhibition [CLK]
Conditions: for IC50: curve of first compound; for viability, T/C: stronger effect = lower value
In short: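 Patient-derived tumor cells grown as complex spheroids with HUVEC endothelial cells and mesenchymal stem cells, treated with drug combinations. Concentrations descend in half-log steps from near clinical Cmax, or from 10 microM if Cmax unknown.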
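Further: spheroids exposed to agents for seven days before reading.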
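Wherever viability, T/C is given: 100% = DMSO vehicle control viability.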

Cn1ncnc1[C@H]1c2n[nH]c(=O)c3cc(F)cc(c23)N[C@@H]1c1ccc(F)cc1 + CN1CCN(c2cc(C(=O)Nc3cc4cc(-c5cnn(C)c5)ccc4cn3)ccn2)CC1
IC50 (second compound 0.0316 µM): > 100 nM | IC50 (second compound 0.1 µM): 1.71 nM | IC50 (second compound 0.316 µM): < 0.316 nM | IC50 (second compound 1 µM): < 0.316 nM | IC50 (second compound 3.16 µM): < 0.316 nM | IC50 (second compound 10 µM): < 0.316 nM | viability, T/C (second compound 0.0316 µM, first compound 0.000316 µM): 80.5% | viability, T/C (second compound 0.0316 µM, first compound 0.001 µM): 71% | viability, T/C (second compound 0.0316 µM, first compound 0.00316 µM): 61.8% | viability, T/C (second compound 0.0316 µM, first compound 0.01 µM): 65.4% | viability, T/C (second compound 0.0316 µM, first compound 0.0316 µM): 84.7% | viability, T/C (second compound 0.0316 µM, first compound 0.1 µM): 60.3% | viability, T/C (second compound 0.1 µM, first compound 0.000316 µM): 54.1% | viability, T/C (second compound 0.1 µM, first compound 0.001 µM): 48.5% | viability, T/C (second compound 0.1 µM, first compound 0.00316 µM): 50.8% | viability, T/C (second compound 0.1 µM, first compound 0.01 µM): 43.5% | viability, T/C (second compound 0.1 µM, first compound 0.0316 µM): 50.1% | viability, T/C (second compound 0.1 µM, first compound 0.1 µM): 42.8% | viability, T/C (second compound 0.316 µM, first compound 0.000316 µM): 21.2% | viability, T/C (second compound 0.316 µM, first compound 0.001 µM): 23.4% | viability, T/C (second compound 0.316 µM, first compound 0.00316 µM): 18.8% | viability, T/C (second compound 0.316 µM, first compound 0.01 µM): 17.7% | viability, T/C (second compound 0.316 µM, first compound 0.0316 µM): 18.8% | viability, T/C (second compound 0.316 µM, first compound 0.1 µM): 17.2% | viability, T/C (second compound 1 µM, first compound 0.000316 µM): 1.28% | viability, T/C (second compound 1 µM, first compound 0.001 µM): 1.4% | viability, T/C (second compound 1 µM, first compound 0.00316 µM): 1.52% | viability, T/C (second compound 1 µM, first compound 0.01 µM): 1.16% | viability, T/C (second compound 1 µM, first compound 0.0316 µM): 1.67% | viability, T/C (second compound 1 µM, first compound 0.1 µM): 1.12% | viability, T/C (second compound 3.16 µM, first compound 0.000316 µM): 0.67% | viability, T/C (second compound 3.16 µM, first compound 0.001 µM): 0.66% | viability, T/C (second compound 3.16 µM, first compound 0.00316 µM): 0.75% | viability, T/C (second compound 3.16 µM, first compound 0.01 µM): 0.62% | viability, T/C (second compound 3.16 µM, first compound 0.0316 µM): 0.71% | viability, T/C (second compound 3.16 µM, first compound 0.1 µM): 0.48% | viability, T/C (second compound 10 µM, first compound 0.000316 µM): 0.16% | viability, T/C (second compound 10 µM, first compound 0.001 µM): 0.26% | viability, T/C (second compound 10 µM, first compound 0.00316 µM): 0.15% | viability, T/C (second compound 10 µM, first compound 0.01 µM): 0.25% | viability, T/C (second compound 10 µM, first compound 0.0316 µM): 0.18% | viability, T/C (second compound 10 µM, first compound 0.1 µM): 0.17%
